# Test results from patent US9586959B2, “Substituted tricyclic heterocycles as histamine 4 receptor inhibitors” (C&C RESEARCH LABORATORIES, priority 2011, dated 2017).
# Experiments:
# [1] = tested on: compound 48/80-induced itching, ICR mice; assay: Compound 48/80-induced itching model in ICR mice; type: in vivo; conditions: 50 mg/kg oral, compound 48/80 100 μg intradermal, 20 min count
# Experimental: (§1) Female, ICR mice (8 weeks old) were purchased from OrientBio Co., Ltd. The animals were housed under conditions of controlled temperature (23±3° C.), humidity (50±5%) and lighting with food and water available ad libitum.
# (§2) The hair was clipped using clippers (8000AD, THRIVE) over the rostral part of the back 24 hours before the experiment under anesthesia with isoflurane. Compound 48/80 (100 μg) were dissolved in saline and a volume of 40 μL injected intradermally into the rostral part of the back. Mice were dosed by orally with either vehicle (20% cyclodextrin in second distilled water) or the compound by orally administration. The Compound (50 mg/kg) dissolved in a vehicle (20% cyclodextrin in second distilled water) and administered orally at a volume of 10 mL/kg.
# (§3) Mice (n=8-10 per group) were divided into 3 groups (normal group, control group and experimental group). The animals were randomized for similar body weight distribution. A vehicle or the compound was administered 20 minutes before injection of compound 48/80 or saline. Immediately after intradermal injection, the animals were returned to an acrylic cage (approximately 30×30×30 cm, access production) composed of four cells, to which they had been acclimated for at least 1 hour before the experiment, for observation of itch responses. A camera (Samsung, VLUUNV30) was positioned above the mice to record their response. Itch was measured by blinded counting of the number of bouts in the 20 min period immediately after the intradermal injection. A number of scratching was defined as 3 or more individual rapid scratch movements with the hind paws around the injection site (J. Pharmacol. Sci. 2006, 100, 285-288; European J. of Pharmacol. 2002, 448, 175-183). All data were analyzed by using Excel and Prism, and all values are expressed as the mean±S.E.M. The inhibitory effect of compounds is shown as a percentage of the maximal response to histamine (100% control group). Statistical analysis was analyzed using one-way ANOVA with Dunnett test. Values of p<0.05 were considered statistically significant.
# [2] = Solubility in artificial gastrointestinal tract solution; type: physicochemical; conditions: artificial gastrointestinal tract solution, thermodynamic from solid; for solubility at 1 h: fassgf or other biorelevant, first solution pH 1.2, 2 mg/mL sample, 37° C. 1 hour; for solubility at 2 h: fassif, second solution pH 6.5, 2 mg/mL sample, 37° C. 2 hours
# Method in brief: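 Two media were used: pH 1.2 NaCl/HCl with Triton X-100, and pH 6.5 phosphate buffer with sodium taurocholate and lecithin. Heated sample solutions were filtered to remove undissolved compound, diluted 1:1 with CH3CN, and solubility was measured by liquid chromatography.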
# [3] = tested on: substance P-induced itching, ICR mice; assay: Substance P-induced itching model in ICR mice; type: in vivo; conditions: 50 mg/kg oral, substance P 100 nmol intradermal, 20 min count
# Experimental: as §1
# as §2, with “Substance P” for “Compound 48/80”, “nmol) was” for “μg) were”, “dosed” for “dosed by orally”
# as §3, with “(n=10” for “(n=8-10”, “Vehicle” for “vehicle”, “substance P” for “compound 48/80”, “scratching” for “bouts”, “(J. Toxicol. Sci. 2009, 34(4), 427-431; J.” for “(J.”, “285-288).” for “285-288; European J. of Pharmacol. 2002, 448, 175-183).”
# [4] = tested on: histamine-induced mast cell migration (trachea); assay: Histamine-induced mast cell migration; type: in vivo, Balb/c mice; conditions: 20 mg/kg oral, 0.1 M histamine aerosol, 2 days
# Experimental: Female, Balb/c mice (7 weeks old, 20±3 g) were purchased from OrientBio Co., Ltd.
# The animals were housed under conditions of controlled temperature (23±3° C.), humidity (50±5%) and lighting with food and water available ad libitum.
# Mice were dosed with either vehicle (20% cyclodextrin in second distilled water) or the compound by orally administration. The Compound (20 mg/kg) dissolved in a vehicle and administered orally at a volume of 10 mL/kg. After 15 minutes, mice were challenged by a 20 min aerosol inhalation of PBS (phosphate buffered saline) or 0.1 M histamine (dissolving in PBS). This process was repeated for 2 days. After a final challenge, the tracheae were cleared of blood via perfusion of PBS and tracheae were extracted, the tracheae were fixed in 10% (w/v) formaldehyde for subsequent paraffin cross-sectioning and toluidine blue staining. Total mast cells were calculated, and a mean was reported. (The Journal of Pharmacology and Experimental Therapeutics, 2004, 309, 404-413). Statistical analysis was analyzed using one-way ANOVA with Dunnett test. Values of p<0.05 were considered statistically significant.
# [5] = Metabolic stability in mouse microsome; conditions: mouse microsome 1 mg/mL, 5 μM compound, 1 mM NADPH
# [6] = biological target: human serotonin 3 receptor (human 5-HT3 receptor) (Homo sapiens (Human), UniProt P46098); assay: Binding affinity of human serotonin 3 receptor (performed at Cerep); conditions: for IC50: read-out: Binding affinity (IC50) of human serotonin 3 receptor (h5-HT3R); for inhibition at 10 µM: read-out: % inhibition degree at 10 μM, human serotonin 3 receptor (h5-HT3R)
# human serotonin 3 receptor (human 5-HT3 receptor), sequence (P46098 24-478): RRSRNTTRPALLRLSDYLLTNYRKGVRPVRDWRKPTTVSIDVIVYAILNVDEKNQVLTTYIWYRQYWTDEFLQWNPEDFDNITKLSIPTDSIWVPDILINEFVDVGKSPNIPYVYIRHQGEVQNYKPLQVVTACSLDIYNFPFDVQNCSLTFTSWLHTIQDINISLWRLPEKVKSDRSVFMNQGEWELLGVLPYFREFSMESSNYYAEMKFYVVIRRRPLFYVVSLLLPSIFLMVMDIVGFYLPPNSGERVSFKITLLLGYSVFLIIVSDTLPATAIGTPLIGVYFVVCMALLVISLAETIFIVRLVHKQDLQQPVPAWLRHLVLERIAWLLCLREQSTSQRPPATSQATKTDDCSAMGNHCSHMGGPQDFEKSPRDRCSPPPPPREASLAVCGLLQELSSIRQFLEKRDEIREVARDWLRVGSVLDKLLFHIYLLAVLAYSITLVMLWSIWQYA
# Experimental: The binding assays of the human serotonin 3 receptor for present invention were performed at Cerep (Poitiers, France), and the results of analysis are shown in Table 3.
solubility at 1 h [2],solubility at 2 h [2],"Metabolic stability (CLh. int), Mouse [5]",SMILES,Number of scratching (% change from control group) [1],Number of scratching (% change from control group) [3],Mast cell migration (% change from control group) [4],IC50 [6],inhibition at 10 µM [6]
2010 µg/mL,1240 µg/mL,10220 µL/min/mg,"CN1CCN(c2nc3ncc(Cl)cc3n3cnnc23)CC1 [Compound 4, 8-Chloro-4-(4-methylpiperazin-1-yl)pyrido[2,3-e][1,2,4]triazolo[4,3-a]pyrazine]",49.6^1%,50.8%,70.3^1%,–,–
1370 µg/mL,1150 µg/mL,6900 µL/min/mg,"Clc1cnc2nc(N3CCNCC3)c3nncn3c2c1 [Compound 7, 8-Chloro-4-(piperazin-1-yl)pyrido[2,3-e][1,2,4]triazolo[4,3-a]pyrazine]",–,60.5^1%,43.1^1%,–,–
1590 µg/mL,791 µg/mL,1760 µL/min/mg,"CNC1CN(c2nc3ncc(Cl)cc3n3cnnc23)C1 [Compound 18, 1-(8-Chloropyrido[2,3-e][1,2,4]triazolo[4,3-a]pyrazin-4-yl)-N-methylazetidin-3-amine]",50.9^1%,42.6%,–,2.9 µM,–
1610 µg/mL,677 µg/mL,5310 µL/min/mg,"CNC1CN(c2nc3ncc(I)cc3n3cnnc23)C1 [Compound 48, 1-(8-Iodopyrido[2,3-e][1,2,4]triazolo[4,3-a]pyrazin-4-yl)-N-methylazetidin-3-amine]",30.3%,33.5%,–,> 10 µM,28%

SMILES,solubility at 1 h [2],solubility at 2 h [2],"Metabolic stability (CLh. int), Mouse [5]",Number of scratching (% change from control group) [1],Number of scratching (% change from control group) [3],Mast cell migration (% change from control group) [4],IC50 [6],inhibition at 10 µM [6]
"CNC1CN(c2nc3ncc(Br)cc3n3cnnc23)C1 [Compound 24, 1-(8-Bromopyrido[2,3-e][1,2,4]triazolo[4,3-a]pyrazin-4-yl)-N-methylazetidin-3-amine]",1690 µg/mL,939 µg/mL,3050 µL/min/mg,47.9^1%,74.5^1%,60.0^1%,9.1 µM,–
"CNC1CN(c2nc3ncc(Br)cc3n3nnnc23)C1 [Compound 95, 1-(8-Bromopyrido[2,3-e]tetrazolo[1,5-a]pyrazin-4-yl)-N-methylazetidin-3-amine]",1790 µg/mL,1130 µg/mL,18100 µL/min/mg,93.6^1%,80.7^1%,–,> 10 µM,25%
